Results from ChEMBL document CHEMBL1153934, “Quantitative structure-activity relationship (QSAR) for a series of novel cannabinoid derivatives using descriptors derived from semi-empirical quantum-chemical calculations” (Bioorg Med Chem, 2009).

What was measured:
[1] = target: Cannabinoid receptor 2 (Homo sapiens, UniProt P34972); assay: Binding affinity to CB2 receptor
[2] = target: Cannabinoid receptor 1 (Homo sapiens, UniProt P21554); assay: Binding affinity to CB1 receptor
Chain of Cannabinoid receptor 1 (P21554 whole entry): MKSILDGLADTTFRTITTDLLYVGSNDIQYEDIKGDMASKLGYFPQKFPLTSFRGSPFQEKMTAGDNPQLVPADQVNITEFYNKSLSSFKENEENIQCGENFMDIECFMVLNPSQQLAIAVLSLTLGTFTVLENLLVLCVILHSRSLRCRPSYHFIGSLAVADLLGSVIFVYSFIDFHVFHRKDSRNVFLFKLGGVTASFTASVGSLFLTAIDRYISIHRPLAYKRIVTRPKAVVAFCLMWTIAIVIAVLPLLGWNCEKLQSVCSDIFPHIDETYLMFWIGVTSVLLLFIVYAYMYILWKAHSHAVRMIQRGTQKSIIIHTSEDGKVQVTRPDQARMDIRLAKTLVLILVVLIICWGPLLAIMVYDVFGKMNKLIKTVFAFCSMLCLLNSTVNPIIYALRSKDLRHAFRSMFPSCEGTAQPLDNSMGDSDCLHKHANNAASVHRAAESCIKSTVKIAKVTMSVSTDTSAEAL

Chain of Cannabinoid receptor 2 (P34972 whole entry): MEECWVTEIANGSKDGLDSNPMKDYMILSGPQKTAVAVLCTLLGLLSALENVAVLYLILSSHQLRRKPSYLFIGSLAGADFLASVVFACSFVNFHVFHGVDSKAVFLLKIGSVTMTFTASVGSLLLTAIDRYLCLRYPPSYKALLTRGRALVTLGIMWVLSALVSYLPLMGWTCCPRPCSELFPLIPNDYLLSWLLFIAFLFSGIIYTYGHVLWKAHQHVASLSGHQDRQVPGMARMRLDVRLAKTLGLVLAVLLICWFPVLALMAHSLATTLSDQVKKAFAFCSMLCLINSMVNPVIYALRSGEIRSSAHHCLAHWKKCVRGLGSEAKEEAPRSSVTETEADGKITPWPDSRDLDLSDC

| SMILES | Ki [1] | Ki [2] |
| --- | --- | --- |
| CC1=CC[C@@H]2[C@@H](C1)c1c(O)cc(C=C3C4CC5CC(C4)CC3C5)cc1OC2(C)C | 0.0089 µM | 0.0486 µM |
| CC1=CC[C@@H]2[C@@H](C1)c1c(O)cc(C3C4CC5CC(C4)CC3C5)cc1OC2(C)C (stereo not given in full) | 0.014 µM | 0.0349 µM |
| CC1=CC[C@@H]2[C@@H](C1)c1c(O)cc(CC3C4CC5CC(C4)CC3C5)cc1OC2(C)C (stereo not given in full) | 0.076 µM | 0.0797 µM |
| CC1=CC[C@@H]2[C@@H](C1)c1c(O)cc(CC34CC5CC(CC(C5)C3)C4)cc1OC2(C)C | 0.0269 µM | 0.0293 µM |
| CC(=O)Nc1cccc(C(C)(C)c2cc(O)c3c(c2)OC(C)(C)[C@@H]2CC=C(C)C[C@@H]32)c1 | 0.0136 µM | 0.0137 µM |
